Data: ChEMBL document CHEMBL1201862, “PubChem BioAssay data set” (2004)
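Exposure lasted 48 hours, with cells grown in 96-well plates and compounds tested at five concentrations. Abbreviation: GI50, concentration required for 50% inhibition of growth.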 Active and inactive are the calls of the source. Rule as the data show it: active = GI50 up to about 1.1 µM and inactive = higher.

Columns and labels:
Assay in all cases: DTP human tumour cell line panel, 48 h
[1] = system: A549
[2] = system: ACHN
[3] = system: COLO 205
[4] = system: HOP-62
[5] = system: HOP-92
[6] = system: LOX IMVI
[7] = system: M14
[8] = system: MDA-MB-231
[9] = system: Malme-3M
[10] = system: NCI-H23
[11] = system: NCI-H522
[12] = system: NCI/ADR-RES
[13] = system: OVCAR-4
[14] = system: SF-295
[15] = system: SK-MEL-28
[16] = system: SNB-19
[17] = system: SR
[18] = system: SW-620
[19] = system: SK-OV-3
[20] = system: UACC-62

SMILES | GI50 [1] | GI50 [2] | GI50 [3] | GI50 [4] | GI50 [5] | GI50 [6] | GI50 [7] | GI50 [8] | GI50 [9] | GI50 [10] | GI50 [11] | GI50 [12] | GI50 [13] | GI50 [14] | GI50 [15] | GI50 [16] | GI50 [17] | GI50 [18] | GI50 [19] | GI50 [20]
CC(C)c1c(P(=O)(c2ccccc2)c2ccccc2)n(C)c2ccccc12 | 51.6 µM (inactive) | 35.2 µM (inactive) | 32.4 µM (inactive) | > 100 µM (inactive) | > 100 µM (inactive) | > 100 µM (inactive) | 64.4 µM (inactive) | > 100 µM (inactive) | > 100 µM (inactive) | 40.5 µM (inactive) | 23.4 µM (inactive) | 43.1 µM (inactive) | 71.4 µM (inactive) | 45.6 µM (inactive) | 76.7 µM (inactive) | 95.9 µM (inactive) | 49.9 µM (inactive) | > 100 µM (inactive) |  | 
O=C1Oc2ccccc2C(=O)/C1=C\Nc1nc(-c2ccc(O)c(O)c2)cs1 | 6.67 µM (inactive) | 2.88 µM (inactive) | 2.3 µM (inactive) | 7.18 µM (inactive) | 13.5 µM (inactive) | 3.55 µM (inactive) | 3.22 µM (inactive) | 5.7 µM (inactive) | 2.99 µM (inactive) | 2.81 µM (inactive) | 2.05 µM (inactive) | 4.46 µM (inactive) | 10.7 µM (inactive) | 24.8 µM (inactive) | 9.12 µM (inactive) | 11.7 µM (inactive) | 1.19 µM (inactive) | 2.44 µM (inactive) | 7.24 µM (inactive) | 4.83 µM (inactive)
Cc1ccc(S(=O)(=O)N2CCNCCN(S(=O)(=O)c3ccc(C)cc3)CCNCC2)cc1 | 34.2 µM (inactive) | 28.9 µM (inactive) | 16.4 µM (inactive) | 16.6 µM (inactive) | 18.7 µM (inactive) | 12.5 µM (inactive) | 18.1 µM (inactive) | 23.7 µM (inactive) | 17.5 µM (inactive) | 32.3 µM (inactive) | 16.6 µM (inactive) | 61.1 µM (inactive) | 32.2 µM (inactive) | 15.8 µM (inactive) | 18.5 µM (inactive) | 31 µM (inactive) | 16.4 µM (inactive) | 35.5 µM (inactive) | 20.4 µM (inactive) | 18.8 µM (inactive)
COc1cc(C2c3cc4c(cc3[C@H](OCCN(C)C)[C@@H]3COC(=O)C23)OCO4)cc(OC)c1O (some centres undefined) | 0.0334 µM (active) | 0.0293 µM (active) | 1.73 µM (inactive) | 0.053 µM (active) | 0.0989 µM (active) | 0.0931 µM (active) | 0.244 µM (active) | 2.62 µM (inactive) | 0.275 µM (active) | 0.155 µM (active) | 0.357 µM (active) | 2.67 µM (inactive) | 1.84 µM (inactive) | 0.0681 µM (active) | 1.02 µM (active) | 0.31 µM (active) | 0.218 µM (active) | 0.422 µM (active) | 0.0912 µM (active) | 0.0762 µM (active)
Cc1ccc(OCC2OC(n3cnc4c(Cl)nc(Cl)nc43)CC2Oc2ccc(C)cc2)cc1 (centres undefined) | 3.5 µM (inactive) | 1.37 µM (inactive) | 1.96 µM (inactive) | 2.56 µM (inactive) | 2.28 µM (inactive) | 1.79 µM (inactive) | 1.85 µM (inactive) | 2.08 µM (inactive) | 2.18 µM (inactive) | 1.85 µM (inactive) | 1.74 µM (inactive) | 1.97 µM (inactive) | 2.15 µM (inactive) | 2.52 µM (inactive) | 2.7 µM (inactive) | 1.5 µM (inactive) | 2.49 µM (inactive) | 3.66 µM (inactive) | 19.2 µM (inactive) | 1.98 µM (inactive)
O=c1cc(-c2ccccc2)oc2ccc(Cl)cc12 [6-CHLOROFLAVONE] | > 100 µM (inactive) | 61.2 µM (inactive) | > 61.8 µM (inactive) | 44.7 µM (inactive) | 22.8 µM (inactive) | > 56.4 µM (inactive) | 65.5 µM (inactive) | 18.1 µM (inactive) | 56.9 µM (inactive) | 49.9 µM (inactive) | 64.3 µM (inactive) | 57.4 µM (inactive) | > 44.3 µM (inactive) | 44.2 µM (inactive) | > 65.6 µM (inactive) | 29.6 µM (inactive) | 20.7 µM (inactive) | > 92.7 µM (inactive) | 68.2 µM (inactive) | > 67.1 µM (inactive)
CCCCCn1c(=O)c2c(=O)[nH][nH]c2c2ccccc21 | > 100 µM (inactive) | > 100 µM (inactive) | > 100 µM (inactive) | > 100 µM (inactive) | > 100 µM (inactive) | > 100 µM (inactive) |  | > 100 µM (inactive) | > 100 µM (inactive) | > 100 µM (inactive) | > 100 µM (inactive) | > 100 µM (inactive) | > 100 µM (inactive) | > 100 µM (inactive) | > 100 µM (inactive) |  | > 100 µM (inactive) | > 100 µM (inactive) | > 100 µM (inactive) | > 100 µM (inactive)
CCOC(=O)c1ccc(NC(=O)Oc2ccc3c(C)cc(=O)oc3c2)cc1 | 43.7 µM (inactive) | 41.4 µM (inactive) | 34.2 µM (inactive) | 31.6 µM (inactive) | 23.7 µM (inactive) | 34.5 µM (inactive) | 28.5 µM (inactive) | 30.3 µM (inactive) | 42.6 µM (inactive) | 32.4 µM (inactive) | 18.7 µM (inactive) | 37 µM (inactive) | 50.1 µM (inactive) | 30.1 µM (inactive) | 34.9 µM (inactive) | 29.7 µM (inactive) | 24.2 µM (inactive) | 36.2 µM (inactive) | 29.6 µM (inactive) | 31.8 µM (inactive)
Cc1ccc(/N=C2N=C(Cl)/C(=C\c3ccccc3)N\2)cc1 | > 100 µM (inactive) |  | 85.3 µM (inactive) | > 100 µM (inactive) | > 100 µM (inactive) | 3.76 µM (inactive) | > 100 µM (inactive) | > 100 µM (inactive) | > 100 µM (inactive) | > 100 µM (inactive) | > 100 µM (inactive) | > 38.5 µM (inactive) | 65.2 µM (inactive) | > 79.3 µM (inactive) | > 100 µM (inactive) | > 100 µM (inactive) | 0.625 µM (active) | > 25 µM (inactive) | > 100 µM (inactive) | 4.26 µM (inactive)
COC(=O)CCCC(=O)O | > 100 µM (inactive) | > 100 µM (inactive) | > 100 µM (inactive) | > 100 µM (inactive) | > 100 µM (inactive) | > 100 µM (inactive) | > 100 µM (inactive) | > 100 µM (inactive) | > 100 µM (inactive) | > 100 µM (inactive) | > 100 µM (inactive) | > 100 µM (inactive) | > 100 µM (inactive) | > 100 µM (inactive) | > 100 µM (inactive) | > 100 µM (inactive) | > 100 µM (inactive) | > 100 µM (inactive) |  | > 100 µM (inactive)
O=C(/C=C/c1ccccc1)N1CCCCC1 | > 100 µM (inactive) | > 100 µM (inactive) | > 100 µM (inactive) | > 100 µM (inactive) | > 100 µM (inactive) | > 100 µM (inactive) | > 100 µM (inactive) | > 100 µM (inactive) |  | > 100 µM (inactive) | > 100 µM (inactive) | > 100 µM (inactive) | > 100 µM (inactive) | > 100 µM (inactive) | > 100 µM (inactive) | > 100 µM (inactive) | > 100 µM (inactive) | > 100 µM (inactive) | > 100 µM (inactive) | > 100 µM (inactive)
COC(=O)C1=CC(=O)OC1(OO)c1ccc(Br)cc1 (centres undefined) | > 100 µM (inactive) | > 100 µM (inactive) | 44.3 µM (inactive) |  | > 100 µM (inactive) | 48.5 µM (inactive) | > 100 µM (inactive) | > 100 µM (inactive) | > 100 µM (inactive) | > 100 µM (inactive) | > 100 µM (inactive) | > 100 µM (inactive) | > 100 µM (inactive) | > 100 µM (inactive) | > 100 µM (inactive) | > 100 µM (inactive) | 55.8 µM (inactive) | 62.8 µM (inactive) | > 100 µM (inactive) | > 100 µM (inactive)
OCCN(CCO)c1nc(N2CCCCC2)c2nc(N(CCO)CCO)nc(N3CCCCC3)c2n1 [DIPYRIDAMOLE] | 38.5 µM (inactive) | 33.9 µM (inactive) | 41.9 µM (inactive) | 29 µM (inactive) | 12.1 µM (inactive) | 37 µM (inactive) | 55.8 µM (inactive) | 43.3 µM (inactive) | 20.5 µM (inactive) | 65.3 µM (inactive) | 17.9 µM (inactive) | 22 µM (inactive) | 59.4 µM (inactive) |  | 43 µM (inactive) |  | 3.46 µM (inactive) | 58.3 µM (inactive) |  | 
Nc1nc(SCCc2ccccc2)c2nc[nH]c2n1 | > 100 µM (inactive) | 35.7 µM (inactive) |  | 50.5 µM (inactive) | 76.6 µM (inactive) | 41.8 µM (inactive) | 71.3 µM (inactive) | 51.1 µM (inactive) | 64.9 µM (inactive) | 69.5 µM (inactive) | 66.2 µM (inactive) | 51.2 µM (inactive) | > 100 µM (inactive) | 71.9 µM (inactive) | 58.9 µM (inactive) | > 100 µM (inactive) | 36.2 µM (inactive) | 76.9 µM (inactive) |  | 47.5 µM (inactive)
O=C(O)C(O)(c1ccc(-c2ccccc2)cc1)c1ccc(-c2ccccc2)cc1 | 40.4 µM (inactive) | 32.1 µM (inactive) |  | 20.1 µM (inactive) | 19.1 µM (inactive) | 17.9 µM (inactive) | 35 µM (inactive) | 28.3 µM (inactive) | 23.1 µM (inactive) | 18.9 µM (inactive) | 18.9 µM (inactive) | 24.5 µM (inactive) | 36 µM (inactive) | 34 µM (inactive) | 35.3 µM (inactive) | 49.4 µM (inactive) | 47.5 µM (inactive) | 32.4 µM (inactive) |  | 18.1 µM (inactive)
